In the Kinase Knowledgebase extract (Sharma et al. 2016):

Target: PIK3CG (human) (UniProt P48736)
Assay: Assessment of PIK3CG Kinase Activity

PIK3CG (human), sequence (P48736 whole entry, looked up): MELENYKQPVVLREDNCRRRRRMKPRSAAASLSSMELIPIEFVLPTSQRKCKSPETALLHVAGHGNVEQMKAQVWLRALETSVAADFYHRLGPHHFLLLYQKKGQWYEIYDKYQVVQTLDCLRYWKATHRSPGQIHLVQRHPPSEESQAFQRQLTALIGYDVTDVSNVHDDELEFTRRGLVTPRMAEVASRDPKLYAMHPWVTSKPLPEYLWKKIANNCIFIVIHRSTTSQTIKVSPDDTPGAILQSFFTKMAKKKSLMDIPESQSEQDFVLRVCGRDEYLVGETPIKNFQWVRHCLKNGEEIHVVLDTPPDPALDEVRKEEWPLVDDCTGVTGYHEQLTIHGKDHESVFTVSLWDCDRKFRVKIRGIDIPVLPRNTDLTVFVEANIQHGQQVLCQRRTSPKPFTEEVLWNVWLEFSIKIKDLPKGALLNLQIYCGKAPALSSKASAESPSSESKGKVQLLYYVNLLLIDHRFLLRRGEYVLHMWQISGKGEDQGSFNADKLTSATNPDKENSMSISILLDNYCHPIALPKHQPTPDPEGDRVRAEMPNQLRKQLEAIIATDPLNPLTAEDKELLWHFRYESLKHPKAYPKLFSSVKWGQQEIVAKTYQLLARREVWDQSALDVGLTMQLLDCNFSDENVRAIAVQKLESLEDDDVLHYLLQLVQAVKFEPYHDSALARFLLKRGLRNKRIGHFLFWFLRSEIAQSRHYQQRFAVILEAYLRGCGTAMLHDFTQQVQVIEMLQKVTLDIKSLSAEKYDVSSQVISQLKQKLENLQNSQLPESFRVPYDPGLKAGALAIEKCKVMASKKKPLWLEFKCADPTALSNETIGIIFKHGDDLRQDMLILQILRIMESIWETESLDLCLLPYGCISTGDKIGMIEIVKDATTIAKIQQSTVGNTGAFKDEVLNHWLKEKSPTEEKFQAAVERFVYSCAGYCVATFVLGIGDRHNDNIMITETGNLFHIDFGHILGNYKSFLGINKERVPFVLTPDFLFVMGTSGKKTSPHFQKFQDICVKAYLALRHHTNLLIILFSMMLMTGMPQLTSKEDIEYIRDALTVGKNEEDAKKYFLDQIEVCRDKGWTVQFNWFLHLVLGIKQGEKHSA

Compound | IC50 [nM]
Nc1nc2c(s1)-c1nc(-c3ccccc3)ncc1CC2 | < 800
CC(=O)Nc1nc2c(s1)-c1c(cnn1-c1ccc(C(=O)N[C@H]3CC[C@@H](N4CCN(C)CC4)CC3)cc1)CC2 | < 800
CC(=O)Nc1nc2c(s1)-c1nn(C(=O)c3ccccc3)cc1CC2 | < 800
CC(=O)Nc1nc2c(s1)-c1c(cnn1-c1ccc(CC(=O)NCc3nc4ccccc4n3C)cc1)CC2 | < 800
CC(=O)Nc1nc2c(s1)-c1c(cnn1-c1ccc(N3C4CCC3CC(O)C4)cc1)CC2 (centres undefined) | < 800
CC(=O)Nc1nc2c(s1)-c1c(cnn1-c1ccc(C(=O)N[C@@H]3CCc4nc(N)sc4C3)cc1)CC2 | < 800
CC(=O)Nc1nc2c(s1)-c1c(c(-c3ccco3)nn1-c1ccc(C(=O)N[C@H]3CC[C@@H](N4CCCC4)CC3)cc1Cl)CC2 | < 800
CC(=O)Nc1nc2c(s1)-c1c(cnn1-c1cc(C)ccc1C)CC2 | < 800
CC(=O)Nc1nc2c(s1)-c1nn(-c3ccccc3C)c(-c3cn(C)cn3)c1CC2 | < 800
CC(=O)Nc1nc2c(s1)-c1c(cnn1-c1ccc(C(=O)N[C@H](CCCCN)C(N)=O)cc1Cl)CC2 | < 800
CC(=O)Nc1nc2c(s1)-c1c(cnn1-c1ccc(C(=O)N[C@H]3CC[C@H](NC(=O)Cc4ccccc4)CC3)cc1)CC2 | < 800
COC(=O)Nc1nn(-c2ccccc2Cl)c2c1CCc1nc(NC(C)=O)sc1-2 | < 800
CC(=O)Nc1nc2c(s1)-c1cc(NC(=O)C(C)C)ccc1CC2 | < 800
CCN(CC)CC1CCCCN1C(=O)Cc1ccc(-n2ncc3c2-c2sc(NC(C)=O)nc2CC3)cc1 (centres undefined) | < 800
CC(=O)Nc1nc2c(s1)-c1nc(COc3ccccc3Cl)ncc1CC2 | < 800
CC(=O)Nc1nc2c(s1)-c1c(cnn1-c1ccc3cn[nH]c3c1)CC2 | < 800
COCc1nn(-c2ccccc2Br)c2c1CCc1nc(NC(C)=O)sc1-2 | < 800
CC(=O)Nc1nc2c(s1)-c1c(cnn1-c1cccc(C)c1C)CC2 | < 800
CC(=O)Nc1nc2c(s1)-c1c(c([C@H]3CCCO3)nn1-c1ccccc1)CC2 | < 800
CC(=O)Nc1nc2c(s1)-c1c(c(C(=O)NCCO)nn1-c1ccccc1Cl)CC2 | < 800
CC(=O)Nc1nc2c(s1)-c1c(c(-c3ccccn3)nn1-c1ccccc1C)CC2 | < 800
COc1cc(-n2ncc3c2-c2sc(NC(C)=O)nc2CC3)nc(OC)n1 | < 800
CC(=O)Nc1nc2c(s1)-c1c(cnn1-c1ccc(C(=O)N[C@H](Cc3ccc(O)cc3)C(N)=O)cc1)CC2 | < 800
CC(=O)Nc1nc2c(s1)-c1c(cnn1-c1ccccc1Br)CC2 | < 800
CCc1ccccc1-n1ncc2c1-c1sc(NC(C)=O)nc1C2 | < 800

Compound | IC50 [nM]
CC(=O)Nc1nc2c(s1)-c1c(cnn1-c1ccc(C(=O)O)cc1)CC2 | < 800
CC(=O)Nc1nc2c(s1)-c1nc(C(F)(F)F)ncc1CC2 | < 800
CC(=O)Nc1nc2c(s1)-c1c(cnn1-c1ccc(C(=O)N[C@@H](Cc3cc4ccccc4[nH]3)C(N)=O)cc1Cl)CC2 | < 800
COc1ccc(-n2ncc3c2-c2sc(NC(C)=O)nc2C3)cc1 | < 800
CC(=O)Nc1nc2c(s1)-c1c(c(-c3ccco3)nn1-c1ccccc1C)CC2 | < 800
CC(=O)Nc1nc2c(s1)-c1c(cnn1-c1ccc(C(=O)N(C)Cc3cnn(C)c3)cc1)CC2 | < 800
CC(=O)Nc1nc2c(s1)-c1c(cnn1-c1ccc(C(C)(C)C)cc1)CC2 | < 800
CC(=O)Nc1nc2c(s1)-c1nc(SCCCN(C)C)ncc1CC2 | < 800
C#CCN(C)C(=O)c1ccc(-n2ncc3c2-c2sc(NC(C)=O)nc2CC3)cc1 | < 800
COc1cccc(-c2ncc3c(n2)-c2sc(NC(C)=O)nc2CC3)c1 | < 800
CC(=O)Nc1nc2c(s1)-c1c(cnn1-c1ccc(C(=O)NCCCn3ccnc3)cc1)CC2 | < 800
CC(=O)Nc1nc2c(s1)-c1c(cnn1-c1cc(O)cc(Cl)c1)CC2 | < 800
CC(=O)Nc1nc2c(s1)-c1c(cnn1-c1cc(S(N)(=O)=O)ccc1Cl)CC2 | < 800
CC(=O)Nc1nc2c(s1)-c1c(c(C(C)C)nn1-c1ccc(C(=O)N[C@H]3CC[C@H](N4CCCC4)CC3)cc1Cl)CC2 | < 800
CC(=O)Nc1nc2c(s1)-c1c(cnn1-c1ccc(C(=O)N3CCCCC3CO)cc1)CC2 (centres undefined) | < 800
CNC(=O)c1ccc(-n2nc(-c3ccco3)c3c2-c2sc(NC(C)=O)nc2CC3)c(Cl)c1 | < 800
CC(=O)Nc1nc2c(s1)-c1nc(N3CCOCC3)ncc1C2 | < 800
CC(=O)Nc1nc2c(s1)-c1nn(-c3ccccc3Cl)c(-c3ccco3)c1CC2 | < 800
COCc1nn(-c2ccc(C(=O)NCc3ccncc3)cc2Cl)c2c1CCc1nc(NC(C)=O)sc1-2 | < 800
CC(=O)Nc1nc2c(s1)-c1c(cnn1C(=O)c1ccccc1Cl)CC2 | < 800
CCSC(=O)Nc1nc2c(s1)-c1c(cnn1-c1ccccc1)CC2 | < 800
CC(=O)Nc1nc2c(s1)-c1c(cnn1-c1ccc(CC(=O)N3CCCC(=O)CC3)cc1)CC2 | < 800
CN(C)CCCC(=O)Nc1nc2c(s1)-c1c(cnn1-c1ccccc1)CC2 | < 800
CC(=O)Nc1nc2c(s1)-c1c(cnn1-c1ccc(C(=O)N3CCC(N4CCCCC4)CC3)cc1Cl)CC2 | < 800
